The record followed here is PubChem BioAssay (NCI).

Test systems include EKVX NSCLC; HL-60(TB) leukemia; HS 578T breast; IGROV1 ovarian; K-562 leukemia; MALME-3M melanoma; NCI-H226 lung; SW-620 colon; T-47D breast; UO-31 renal.
Holding throughout (assay): NCI-60 cell line screen, 48 h

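These data come from cells grown in 96-well plates and exposed to compound for 48 hours at five concentrations. Abbreviation: GI50, concentration required for 50% inhibition of growth. TGI marks complete inhibition of growth.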

`N#C/C(=C\c1ccc2[nH]ccc2c1)C(=O)NCCCCNC(=O)/C(C#N)=C/c1ccc2[nH]ccc2c1`: the TGI in the experiment with EKVX NSCLC is more than 31.6 µM; in the experiment on HL-60(TB) leukemia it was more than 31.6 µM; in the experiment with HS 578T breast, more than 10 µM; in the experiment on IGROV1 ovarian, more than 31.6 µM; with K-562 leukemia it was more than 31.6 µM; with MALME-3M melanoma, more than 31.6 µM. Also, the TGI in the experiment with NCI-H226 lung is more than 31.6 µM; in the experiment with SW-620 colon, more than 31.6 µM; in the experiment on T-47D breast, more than 10 µM; in the experiment on UO-31 renal it was more than 31.6 µM.
As to `Cn1c(COC(=O)NCCc2ccccn2)nc2c(N3CCOCC3)nc(Cl)nc21`, the GI50 in the experiment on EKVX NSCLC was 1.7 µM; in the experiment with HL-60(TB) leukemia it was 1.17 µM; in the experiment with HS 578T breast, 2 µM; in the experiment with IGROV1 ovarian, 1.31 µM; in the experiment with K-562 leukemia, 1.63 µM; in the experiment with MALME-3M melanoma it was 1.77 µM. Moreover, the GI50 with NCI-H226 lung is 12.3 µM; with SW-620 colon it was 1.28 µM; in the experiment on T-47D breast it was 1.65 µM; with UO-31 renal it was 1.19 µM. The TGI in the experiment on EKVX NSCLC is 3.7 µM; in the experiment with HL-60(TB) leukemia, 4.61 µM; in the experiment on HS 578T breast, 6.22 µM; with IGROV1 ovarian, 2.84 µM; in the experiment with K-562 leukemia, 75.2 µM; in the experiment on MALME-3M melanoma it was 3.38 µM. The TGI in the experiment on NCI-H226 lung was 30.4 µM; in the experiment on SW-620 colon it was 2.98 µM; in the experiment on T-47D breast, 3.67 µM; with UO-31 renal, 2.45 µM.
As to `C[C@@]1(F)[C@H](O)[C@@H](CO)O[C@H]1n1ccc(=O)[nH]c1=O`, the GI50 with EKVX NSCLC, with HL-60(TB) leukemia, in the experiment on HS 578T breast, in the experiment on IGROV1 ovarian, with K-562 leukemia and in the experiment on MALME-3M melanoma was more than 100 µM throughout. Moreover, the GI50 with NCI-H226 lung, in the experiment on SW-620 colon, with T-47D breast and with UO-31 renal was more than 100 µM each time. In addition, the TGI with EKVX NSCLC, in the experiment on HL-60(TB) leukemia, in the experiment on HS 578T breast, in the experiment with IGROV1 ovarian, with K-562 leukemia and with MALME-3M melanoma was more than 100 µM each time. The TGI in the experiment on NCI-H226 lung, in the experiment on SW-620 colon, with T-47D breast and with UO-31 renal was more than 100 µM throughout.
Take `O=C1C(=O)c2c(nc3ccc(C(F)(F)F)cn23)-c2ccccc21`: the GI50 with EKVX NSCLC is 0.178 µM; in the experiment with HL-60(TB) leukemia, 0.201 µM; with HS 578T breast, 0.206 µM; with IGROV1 ovarian it was 0.191 µM; in the experiment with K-562 leukemia it was 0.175 µM; in the experiment on MALME-3M melanoma, 0.158 µM. For the same compound, the GI50 with NCI-H226 lung is 0.72 µM; with SW-620 colon, 0.192 µM; in the experiment with T-47D breast, 0.214 µM; with UO-31 renal it was 0.164 µM. Also, the TGI in the experiment on EKVX NSCLC came out at 0.396 µM; with HL-60(TB) leukemia, 0.6 µM; in the experiment with HS 578T breast it was 0.523 µM; in the experiment on IGROV1 ovarian it was 0.47 µM; in the experiment with K-562 leukemia it was 0.787 µM; in the experiment with MALME-3M melanoma, 0.295 µM. In addition, the TGI in the experiment with NCI-H226 lung was 1.77 µM; with SW-620 colon, 0.397 µM; in the experiment with T-47D breast it was 0.57 µM; in the experiment with UO-31 renal, 0.345 µM.
As to `CC1(C)CC(C)(C)c2cc(NC(=S)Nc3ccc([N+](=O)[O-])cc3)ccc2S1`, the GI50 was 12.7 µM in the experiment on EKVX NSCLC; 30.2 µM in the experiment with HL-60(TB) leukemia; 24.2 µM in the experiment on HS 578T breast; 10.5 µM in the experiment with IGROV1 ovarian; 10.8 µM in the experiment with K-562 leukemia; 2.62 µM in the experiment with MALME-3M melanoma. The GI50 in the experiment with NCI-H226 lung is 14.3 µM; in the experiment with SW-620 colon, 15.6 µM; in the experiment with T-47D breast, 17.1 µM; with UO-31 renal, 12.4 µM. Also, the TGI with EKVX NSCLC is 29.7 µM; with HL-60(TB) leukemia it was more than 85.3 µM; with HS 578T breast, 58.3 µM; in the experiment with IGROV1 ovarian, 29 µM; in the experiment with K-562 leukemia, more than 60 µM; in the experiment on MALME-3M melanoma, 10.1 µM. Besides, the TGI in the experiment on NCI-H226 lung is 38.5 µM; in the experiment on SW-620 colon, more than 80.2 µM; with T-47D breast, more than 52.6 µM; in the experiment on UO-31 renal it was 39.4 µM.
`Nc1cc2c3c(cccc3c1)C(=O)N(CCN1CCCC1)C2=O`: the GI50 with EKVX NSCLC was 3.69 µM; in the experiment on HL-60(TB) leukemia it was 4.16 µM; in the experiment with HS 578T breast, 4.83 µM; in the experiment on IGROV1 ovarian, 1.33 µM; in the experiment on K-562 leukemia, 3.75 µM; with MALME-3M melanoma, 2.49 µM. Besides, the GI50 is 1.98 µM in the experiment on NCI-H226 lung, 2.39 µM with SW-620 colon, 1.93 µM in the experiment on T-47D breast and 2.35 µM with UO-31 renal. Besides, the TGI is 54.2 µM in the experiment with EKVX NSCLC; more than 100 µM in the experiment with HL-60(TB) leukemia; 35 µM in the experiment with HS 578T breast; more than 100 µM in the experiment with IGROV1 ovarian; more than 37.6 µM in the experiment on K-562 leukemia; 7.68 µM with MALME-3M melanoma. For the same compound, the TGI in the experiment with NCI-H226 lung was 6.23 µM; with SW-620 colon, more than 53.8 µM; in the experiment on T-47D breast it was 9.36 µM; in the experiment on UO-31 renal, more than 100 µM.
In the case of `COc1cc(C2CC(c3ccc(Nc4nc(NCCO)nc(NCCO)n4)cc3)=NN2c2cc(Cl)cc(Cl)c2)cc(OC)c1OC` (stereo not given), the GI50 with EKVX NSCLC is 2.03 µM; in the experiment with HL-60(TB) leukemia it was 1.5 µM; in the experiment on HS 578T breast, 0.644 µM; in the experiment with IGROV1 ovarian, 2.02 µM; with K-562 leukemia, 1.47 µM; in the experiment on MALME-3M melanoma, 1.96 µM. The GI50 with NCI-H226 lung was 3.85 µM; in the experiment on SW-620 colon, 1.8 µM; in the experiment with T-47D breast, 1.18 µM; in the experiment on UO-31 renal it was 2.08 µM. The TGI in the experiment with EKVX NSCLC came to 6.17 µM; in the experiment on HL-60(TB) leukemia, 3.43 µM; in the experiment with HS 578T breast, 3.34 µM; with IGROV1 ovarian, 4.8 µM; in the experiment with K-562 leukemia it was 3.58 µM; in the experiment on MALME-3M melanoma, 3.84 µM. Moreover, the TGI was 16.8 µM in the experiment with NCI-H226 lung, 3.79 µM in the experiment on SW-620 colon, 12.1 µM with T-47D breast and 8.09 µM with UO-31 renal.
